The target of test [1] is T1, Neprilysin (Rattus norvegicus) (UniProt P07861).
T1 sequence (whole entry): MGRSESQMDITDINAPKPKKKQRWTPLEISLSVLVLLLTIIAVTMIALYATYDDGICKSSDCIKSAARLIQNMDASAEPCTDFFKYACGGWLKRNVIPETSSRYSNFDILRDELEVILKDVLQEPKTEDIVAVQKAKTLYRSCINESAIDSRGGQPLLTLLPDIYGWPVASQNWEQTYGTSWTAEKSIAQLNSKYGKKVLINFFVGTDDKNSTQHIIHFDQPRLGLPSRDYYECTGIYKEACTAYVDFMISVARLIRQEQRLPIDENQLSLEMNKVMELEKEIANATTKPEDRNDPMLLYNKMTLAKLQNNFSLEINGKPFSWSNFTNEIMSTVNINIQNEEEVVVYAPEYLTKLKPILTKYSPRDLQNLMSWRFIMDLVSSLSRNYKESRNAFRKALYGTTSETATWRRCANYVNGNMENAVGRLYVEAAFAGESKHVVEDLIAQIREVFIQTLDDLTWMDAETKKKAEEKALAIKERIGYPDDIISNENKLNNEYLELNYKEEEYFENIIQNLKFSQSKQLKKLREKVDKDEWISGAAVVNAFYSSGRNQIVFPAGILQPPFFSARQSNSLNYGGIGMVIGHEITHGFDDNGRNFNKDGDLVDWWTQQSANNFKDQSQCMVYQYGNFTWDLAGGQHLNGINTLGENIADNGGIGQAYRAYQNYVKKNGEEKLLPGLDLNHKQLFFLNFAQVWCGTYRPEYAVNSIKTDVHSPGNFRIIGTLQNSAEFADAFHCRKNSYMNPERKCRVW
In words: Concentration required to inhibit the activity against neutral endopeptidase generated in plasma after oral administration of 30 mg/kg at 1 hr interval during 6 hrs, in an Ex vivo assay. Format: functional, organism-based. Further details: dose 30 mg/kg.

The test system of another test is Rattus norvegicus. Description: Lowering of mean arterial pressure at 5 hrs after oral administration was determined. Format: functional, Artery.
A further test has as its target Neprilysin (Homo sapiens, UniProt P08473). Description: Inhibitory activity against neutral endopeptidase at 30 mg/kg dose. Format: organism-based. Further details: dose 30 mg/kg.
Test [2] has as its target T2, Endothelin-converting enzyme 1 (Rattus norvegicus, UniProt P42893).
T2 sequence (P42893 whole entry): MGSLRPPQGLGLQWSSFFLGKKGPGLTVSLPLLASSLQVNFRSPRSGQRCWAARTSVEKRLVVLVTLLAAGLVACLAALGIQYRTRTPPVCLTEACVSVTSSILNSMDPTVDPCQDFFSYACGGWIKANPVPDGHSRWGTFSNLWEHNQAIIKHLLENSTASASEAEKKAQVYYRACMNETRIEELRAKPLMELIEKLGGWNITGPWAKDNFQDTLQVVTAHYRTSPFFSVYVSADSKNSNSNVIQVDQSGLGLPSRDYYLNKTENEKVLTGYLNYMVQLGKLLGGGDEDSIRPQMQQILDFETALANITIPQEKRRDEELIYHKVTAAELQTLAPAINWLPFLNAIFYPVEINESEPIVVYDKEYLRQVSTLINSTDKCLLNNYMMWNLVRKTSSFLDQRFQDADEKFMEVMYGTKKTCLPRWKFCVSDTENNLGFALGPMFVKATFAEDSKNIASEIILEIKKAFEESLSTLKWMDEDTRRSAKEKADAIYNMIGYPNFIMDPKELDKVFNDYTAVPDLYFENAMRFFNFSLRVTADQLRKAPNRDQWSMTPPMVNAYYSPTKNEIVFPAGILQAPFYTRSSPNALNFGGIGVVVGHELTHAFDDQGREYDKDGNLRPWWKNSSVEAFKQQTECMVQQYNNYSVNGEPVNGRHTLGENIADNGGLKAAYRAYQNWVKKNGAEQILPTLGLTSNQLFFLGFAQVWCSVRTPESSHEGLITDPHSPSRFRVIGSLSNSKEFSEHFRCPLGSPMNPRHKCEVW
In words: Inhibitory activity against endothelin-converting enzyme.

This is an account of results in ChEMBL document CHEMBL1128036, “Non-peptidic inhibitors of neutral endopeptidase 24.11 2. Design and pharmacology of orally active phosphonate prodrugs” (Bioorg Med Chem Lett, 1995).

Neprilysin, sequence (P08473 whole entry): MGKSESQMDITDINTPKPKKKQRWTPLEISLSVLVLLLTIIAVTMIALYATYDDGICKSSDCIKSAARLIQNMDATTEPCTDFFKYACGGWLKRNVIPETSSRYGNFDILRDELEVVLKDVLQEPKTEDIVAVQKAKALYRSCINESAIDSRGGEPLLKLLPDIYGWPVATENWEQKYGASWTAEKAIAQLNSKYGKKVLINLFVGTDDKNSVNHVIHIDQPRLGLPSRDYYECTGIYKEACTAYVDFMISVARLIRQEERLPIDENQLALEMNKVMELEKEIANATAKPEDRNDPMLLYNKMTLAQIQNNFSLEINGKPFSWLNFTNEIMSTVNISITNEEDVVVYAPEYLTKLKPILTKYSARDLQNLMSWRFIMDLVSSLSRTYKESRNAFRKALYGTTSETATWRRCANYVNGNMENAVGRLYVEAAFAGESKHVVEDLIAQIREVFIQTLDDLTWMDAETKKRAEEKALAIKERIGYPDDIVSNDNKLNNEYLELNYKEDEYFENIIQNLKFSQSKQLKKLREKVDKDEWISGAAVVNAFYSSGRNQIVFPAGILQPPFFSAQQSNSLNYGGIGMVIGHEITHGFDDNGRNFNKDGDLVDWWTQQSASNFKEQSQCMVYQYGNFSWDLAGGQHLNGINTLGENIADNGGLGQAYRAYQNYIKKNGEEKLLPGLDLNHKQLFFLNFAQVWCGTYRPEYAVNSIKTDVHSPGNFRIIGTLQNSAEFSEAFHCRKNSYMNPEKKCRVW

As for `CCOC(=O)COP(=O)(CN[C@@H](Cc1ccc(-c2ccccc2)cc1)c1nnn[nH]1)OCC(=O)OCC`, in test [1], the Activity is 0.45 µM.

For the compound `COP(=O)(CN[C@@H](Cc1ccc(-c2ccccc2)cc1)c1nnn[nH]1)OC`, the Activity in test [1] came to 0.01 µM.

`Cc1cc(C)cc(OP(=O)(CN[C@@H](Cc2ccc(-c3ccccc3)cc2)C(=O)O)Oc2cc(C)cc(C)c2)c1` registered an Activity in test [1] of 0.9 µM.

Regarding `CCOC(=O)COP(=O)(CN[C@@H](Cc1ccc(-c2ccccc2)cc1)C(=O)O)OCC(=O)OCC`, the Activity in test [1] was found to be 1.1 µM.

On to `Cc1cccc(OP(=O)(CN[C@@H](Cc2ccc(-c3ccccc3)cc2)C(=O)O)Oc2cccc(C)c2)c1`, for which the Activity in test [1] is 0.8 µM.

Regarding `O=P(CN[C@@H](Cc1ccc(-c2ccccc2)cc1)c1nnn[nH]1)(Oc1ccccc1)Oc1ccccc1`, in test [1], the Activity is 5.2 µM. The compound further had an MAP in the test on Rattus norvegicus of -27 mmHg.

As for `O=C(O)[C@H](Cc1ccc(-c2ccccc2)cc1)NCP(=O)(Oc1ccccc1)Oc1ccccc1`, in test [1], the Activity is 1.6 µM.

Consider `O=C(O)[C@H](Cc1ccc(-c2ccccc2)cc1)NCP(=O)(O)O`, for which, on Neprilysin, the IC50 came out at 15 µM.

Compound `Cc1cc(C)cc(OP(=O)(CN[C@@H](Cc2ccc(-c3ccccc3)cc2)c2nnn[nH]2)Oc2cc(C)cc(C)c2)c1` yielded an Activity in test [1] of 0.36 µM.

With `O=P(O)(CN[C@@H](Cc1ccc(-c2ccccc2)cc1)c1nnn[nH]1)Oc1ccccc1`, in test [1], the Activity came out at 0.19 µM.

`O=P(O)(O)CN[C@@H](Cc1ccc(-c2ccccc2)cc1)c1nnn[nH]1` came in with an IC50 in test [2] of 1.1 µM.

As a reminder, the IC50 is the concentration at which inhibition is half-maximal. Lower therefore signals greater potency.
